According to US12187742B2 (XRAD Therapeutics, Inc., priority 2018, dated 2025):
pIC50: −log10 of the molar value. Structures can show the parent of a compound that is named as a salt.

Tests used:
ATM = ATM (Homo sapiens (Human), UniProt Q13315); test: ATM in Cell Western Assay (pKAP1 in etoposide-treated MCF-7 cells); assay type: cell-based
Method in brief: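 Cells received compounds in a 10-dose, 3-fold series from a 1 μM final top concentration, then 100 μM etoposide, for 1 hr at 37° C. They were then fixed with paraformaldehyde and permeabilized with 0.1% Triton X-100. After immunostaining, plates were scanned on an infrared imager.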

DNA-PK = DNA-PK (Homo sapiens (Human), UniProt P78527); test: DNA-PK Enzyme-Linked Immunosorbent Assay (phosphorylation of GST-p53 (1-101) peptide); assay type: biochemical; conditions: ELISA
Method in brief: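 ELISA with plate-bound GST-p53 (1-101) phosphorylated by DNA-PK (0.1 μg/mL final) with 20 μM ATP for 1 h at 25 °C. Compounds tested over 10 3-fold doses from 100 nM top final. Phospho-p53 Ser15 detected by antibody, HRP and TMB, absorbance at 450 nm.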

[1] = MCF-7 cells, etoposide 100 μM, 1 hr, pKAP1 readout
[2] = pKAP1 in etoposide-treated MCF-7 cells

ATM, sequence (Q13315 whole entry): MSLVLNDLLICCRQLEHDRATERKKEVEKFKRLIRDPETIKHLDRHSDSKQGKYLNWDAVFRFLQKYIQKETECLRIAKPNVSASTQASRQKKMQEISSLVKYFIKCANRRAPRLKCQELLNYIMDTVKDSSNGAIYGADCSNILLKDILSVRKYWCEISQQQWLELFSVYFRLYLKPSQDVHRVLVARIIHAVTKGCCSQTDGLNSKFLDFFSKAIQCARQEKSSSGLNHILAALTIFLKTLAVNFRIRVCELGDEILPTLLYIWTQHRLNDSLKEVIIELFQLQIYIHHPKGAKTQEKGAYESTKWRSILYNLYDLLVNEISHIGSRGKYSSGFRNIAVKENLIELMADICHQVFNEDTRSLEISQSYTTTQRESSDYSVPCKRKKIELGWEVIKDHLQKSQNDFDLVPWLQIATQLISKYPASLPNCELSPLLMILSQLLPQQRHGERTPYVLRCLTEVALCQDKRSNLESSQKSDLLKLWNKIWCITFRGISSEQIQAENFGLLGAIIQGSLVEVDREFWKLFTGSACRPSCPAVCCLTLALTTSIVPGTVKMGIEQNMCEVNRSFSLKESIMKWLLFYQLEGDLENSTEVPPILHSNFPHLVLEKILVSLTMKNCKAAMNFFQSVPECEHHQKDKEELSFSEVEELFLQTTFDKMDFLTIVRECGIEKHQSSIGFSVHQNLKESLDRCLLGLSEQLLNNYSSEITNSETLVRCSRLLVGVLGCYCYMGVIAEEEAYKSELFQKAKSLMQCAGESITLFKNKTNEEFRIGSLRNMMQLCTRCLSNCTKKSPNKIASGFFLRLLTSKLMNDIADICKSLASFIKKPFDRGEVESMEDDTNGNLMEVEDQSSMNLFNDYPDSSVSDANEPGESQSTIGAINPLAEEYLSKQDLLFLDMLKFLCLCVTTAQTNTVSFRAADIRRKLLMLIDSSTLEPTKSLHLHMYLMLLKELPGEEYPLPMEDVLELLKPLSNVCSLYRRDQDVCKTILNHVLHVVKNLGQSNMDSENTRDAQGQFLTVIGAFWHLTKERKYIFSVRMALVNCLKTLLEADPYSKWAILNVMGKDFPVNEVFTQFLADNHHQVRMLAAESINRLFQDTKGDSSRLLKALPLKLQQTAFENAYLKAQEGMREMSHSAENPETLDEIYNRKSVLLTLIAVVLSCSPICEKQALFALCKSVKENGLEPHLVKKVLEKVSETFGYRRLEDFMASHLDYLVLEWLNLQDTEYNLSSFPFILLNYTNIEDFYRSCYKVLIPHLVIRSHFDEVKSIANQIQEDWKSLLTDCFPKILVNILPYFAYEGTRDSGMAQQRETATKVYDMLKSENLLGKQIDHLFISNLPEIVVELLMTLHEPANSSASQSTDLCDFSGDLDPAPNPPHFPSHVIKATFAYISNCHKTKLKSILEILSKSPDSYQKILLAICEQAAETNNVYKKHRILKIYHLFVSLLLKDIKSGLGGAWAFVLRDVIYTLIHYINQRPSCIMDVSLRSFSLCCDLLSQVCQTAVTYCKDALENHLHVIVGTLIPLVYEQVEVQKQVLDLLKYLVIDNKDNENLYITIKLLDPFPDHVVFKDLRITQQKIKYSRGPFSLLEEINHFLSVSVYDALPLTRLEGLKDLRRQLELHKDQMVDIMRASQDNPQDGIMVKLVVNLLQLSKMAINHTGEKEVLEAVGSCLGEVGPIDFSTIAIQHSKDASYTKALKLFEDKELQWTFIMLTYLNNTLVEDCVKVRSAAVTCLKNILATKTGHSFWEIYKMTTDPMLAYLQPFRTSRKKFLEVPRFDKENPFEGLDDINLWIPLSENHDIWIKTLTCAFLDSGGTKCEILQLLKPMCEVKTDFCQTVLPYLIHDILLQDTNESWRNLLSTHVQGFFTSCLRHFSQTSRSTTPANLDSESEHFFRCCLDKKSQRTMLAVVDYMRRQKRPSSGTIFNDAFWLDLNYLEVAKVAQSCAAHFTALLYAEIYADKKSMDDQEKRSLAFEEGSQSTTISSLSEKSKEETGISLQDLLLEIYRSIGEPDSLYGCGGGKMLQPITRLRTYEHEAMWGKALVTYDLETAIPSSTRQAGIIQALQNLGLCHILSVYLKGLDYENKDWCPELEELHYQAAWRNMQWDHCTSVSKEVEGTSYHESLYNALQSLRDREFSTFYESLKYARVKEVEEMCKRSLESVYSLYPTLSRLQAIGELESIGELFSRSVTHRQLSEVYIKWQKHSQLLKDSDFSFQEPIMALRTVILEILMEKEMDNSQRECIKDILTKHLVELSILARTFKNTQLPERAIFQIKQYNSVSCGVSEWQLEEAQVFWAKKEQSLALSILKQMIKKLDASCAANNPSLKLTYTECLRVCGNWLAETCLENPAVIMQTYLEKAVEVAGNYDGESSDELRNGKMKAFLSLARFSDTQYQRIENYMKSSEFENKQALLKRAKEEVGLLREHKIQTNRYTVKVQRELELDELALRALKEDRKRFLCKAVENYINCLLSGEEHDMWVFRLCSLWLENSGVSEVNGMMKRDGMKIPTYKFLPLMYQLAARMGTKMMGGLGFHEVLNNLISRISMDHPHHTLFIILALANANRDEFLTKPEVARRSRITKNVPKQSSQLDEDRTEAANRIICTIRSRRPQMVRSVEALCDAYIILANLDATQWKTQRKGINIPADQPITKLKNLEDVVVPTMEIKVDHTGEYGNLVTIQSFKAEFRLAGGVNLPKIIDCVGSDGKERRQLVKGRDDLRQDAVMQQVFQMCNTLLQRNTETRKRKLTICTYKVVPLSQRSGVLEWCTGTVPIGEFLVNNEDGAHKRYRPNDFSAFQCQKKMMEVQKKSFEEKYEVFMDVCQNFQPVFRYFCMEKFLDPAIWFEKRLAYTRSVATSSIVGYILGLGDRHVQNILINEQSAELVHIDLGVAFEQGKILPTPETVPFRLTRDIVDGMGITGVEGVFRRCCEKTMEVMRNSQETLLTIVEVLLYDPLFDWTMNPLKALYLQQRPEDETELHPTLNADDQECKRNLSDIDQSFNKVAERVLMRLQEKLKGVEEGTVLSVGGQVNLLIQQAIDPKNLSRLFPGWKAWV

pIC50 (ATM; [1])	pIC50 (DNA-PK; ATP 20 μM)	pIC50 (ATM; [2])	pIC50 (DNA-PK; 20 μM ATP)	Compound
7.00 to 9.00	7.00 to 9.00	–	–	CN1C(=O)C2(CCC2)c2c1cnc1cc(F)c(-c3cnc(N4CC(N(C)C)C4)c(NS(=O)(=O)N(C)C)c3)cc21 [Example 316, 8′-{6-[3-(Dimethylamino)azetidin-1-yl]-5-[(dimethylsulfamoyl)amino]pyridin-3-yl}-7′-fluoro-3′-methyl-2′,3′-dihydrospiro[cyclobulane-1,1′-pyrrolo[2,3-c]quinoline]-2′-one hydrochloride]
7.00 to 9.00	7.00 to 9.00	–	–	CN1C(=O)C2(CCC2)c2c1cnc1cc(F)c(-c3cnc(N4CC(N(C)C)C4)c(NS(C)(=O)=O)c3)cc21 [Example 317, N-(2-(3-(Dimethylamino)azetidin-1-yl)-5-(7′-fluoro-3′-methyl-2′-oxo-2′,3′-dihydrospiro[cyclobulane-1,1′-pyrrolo[2,3-c]quinolin]-8′-yl)pyridin-3-yl)methanesulfonamide hydrochloride]
7.00 to 9.00	9.00 to 9.30	–	–	CCS(=O)(=O)Nc1cc(-c2ccc3ncc4c(c3c2)C2(CCC2)C(=O)N4C)cnc1N1CC(N(C)C)C1 [Example 318, N-(2-(3-(Dimethylamino)azetidin-1-yl)-5-(3′-methyl-2′-oxo-2′,3′-dihydrospiro [cyclobulane-1,1′-pyrrolo[2,3-c]quinolin]-8′-yl)pyridin-3-yl)etlianesulfonamide]
7.00 to 9.00	7.00 to 9.00	–	–	CN1C(=O)C2(CCC2)c2c1cnc1cc(F)c(-c3cnc(N4CC(N(C)C)C4)c(NS(=O)(=O)C4CC4)c3)cc21 [Example 319, N-(2-(3-(Dimethylamino)azetidin-1-yl)-5-(7′-fluoro-3′-methyl-2′-oxo-2′,3′-dihydrospiro[cyclobulane-1,1′-pyrrolo[2,3-c]quinolin]-8′-yl)pyridin-3-yl)cyclopropanesulfonamide hydrochloride]
7.00 to 9.00	7.00 to 9.00	–	–	CN1C(=O)C2(CCC2)c2c1cnc1ccc(-c3cnc(N4CC(N(C)C)C4)c(NS(=O)(=O)C4CC4)c3)cc21 [Example 320, N-(2-(3-(Dimethylamino)azetidin-1-yl)-5-(3′-methyl-2′-oxo-2′,3′-dihydrospiro[cyclobulane-1,1′-pyrrolo[2,3-c]quinolin]-8′-yl)pyridin-3-yl)cyclopropanesulfonamide]
7.00 to 9.00	7.00 to 9.00	–	–	Cc1ccc(S(=O)(=O)Nc2cc(-c3cc4c5c(cnc4cc3F)N(C)C(=O)C53CCC3)cnc2N2CC(N(C)C)C2)cc1 [Example 323, N-(2-(3-(Dimethylamino)azetidin-1-yl)-5-(7′-fluoro-3′-methyl-2′-oxo-2′,3′-dihydrospiro[cyclobutane-1,1′-pyrrolo[2,3-c]quinolin]-8′-yl)pyridin-3-yl)-4-methylbenzenesulfonamide hydrochloride]
7.00 to 9.00	7.00 to 9.00	–	–	CN1C(=O)C2(CCC2)c2c1cnc1cc(F)c(-c3cnc(N4CC(N(C)C)C4)c(NS(=O)(=O)c4ccccc4)c3)cc21 [Example 324, N-(2-(3-(Dimethylamino)azetidin-1-yl)-5-(7′-fluoro-3′-methyl-2′-oxo-2′,3′-dihydrospiro[cyclobutane-1,1′-pyrrolo[2,3-c]quinolin]-8′-yl)pyridin-3-yl)benzenesulfonamide hydrochloride]
7.00 to 9.00	7.00 to 9.00	–	–	CC1CCC12C(=O)N(C)c1cnc3ccc(-c4cnc(N5CC(N(C)C)C5)c(NS(C)(=O)=O)c4)cc3c12 (stereo not shown) [Example 325, N-(5-(2,3′-Dimethyl-2′-oxo-2′,3′-dihydrospiro[cyclobutane-1,1′-pyrrolo[2,3-c]quinolin]-8′-yl)-2-(3-(dimethylamino)azetidin-1-yl)pyridin-3-yl)methanesulfonamideformate]
7.00 to 9.00	9.00 to 9.30	–	–	CCN(C)C1CN(c2ncc(-c3ccc4ncc5c(c4c3)C3(CCC3)C(=O)N5C)cc2NS(C)(=O)=O)C1 [Example 326, N-(2-(3-(Ethyl(methyl)amino)azetidin-1-yl)-5-(3′-methyl-2′-oxo-2′,3′-dihydrospiro[cyclobutane-1,1′-pyrrolo[2,3-c]quinolin]-8′-yl)pyridin-3-yl)methanesulfonamide hydrochloride]
7.00 to 9.00	> 9.30	–	–	CNC1CN(c2ncc(-c3ccc4ncc5c(c4c3)C3(CCC3)C(=O)N5C)cc2NS(C)(=O)=O)C1 [Example 329, N-(5-(3′-Methyl-2′-oxo-2′,3′-dihydrospiro[cyclobutane-1,1′-pyrrolo[2,3-c]quinolin]-8′-yl)-2-(3-(methylamino)azetidin-1-yl)pyridin-3-yl) methanesulfonamide formate]
7.00 to 9.00	9.00 to 9.30	–	–	CNC1CN(c2ncc(-c3cc4c5c(cnc4cc3F)N(C)C(=O)C53CCC3)cc2NS(C)(=O)=O)C1 [Example 330, N-(5-(7′-Fluor-3′-methyl-2′-oxo-2′,3′-dihydrospiro [cyclobutane-1,1-pyrrolo[2,3-c]quinolin]-8′-yl)-2-(3-(methylamino)azetidin-1-yl)pyridin-3-yl) methanesulfonamide formate]
7.00 to 9.00	9.00 to 9.30	–	–	CCNC1CN(c2ncc(-c3cc4c5c(cnc4cc3F)N(C)C(=O)C53CCC3)cc2NS(C)(=O)=O)C1 [Example 331, N-(2-(3-(Ethylamino)azetidin-1-yl)-5-(7′-fluoro-3′-methyl-2′-oxo-2′,3′-dihydrospiro [cyclobutane-1,1′-pyrrolo [2,3-c]quinolin]-8′-yl)pyridin-3-yl)methanesulfonamide]
7.00 to 9.00	7.00 to 9.00	–	–	CNC1CN(c2ncc(-c3cc4c5c(cnc4cc3F)N(C)C(=O)C53CCC3)cc2NS(=O)(=O)N(C)C)C1 [Example 332, 8′-{5-[(Dimethylsulfamoyl)amino]-6-[3-(methylamino)azetidin-1-yl]pyridin-3-yl}-7′-fluoro-3′-methyl-2′,3′-dihydrospiro[cyclobutane-1,1′-pyrrolo[2,3-c]quinoline]-2′-one]
9.00 to 9.30	9.00 to 9.30	–	–	CNC1CN(c2ncc(-c3cc4c5c(cnc4cc3F)N(C)C(=O)C53CCC3)cc2NS(=O)(=O)C2CC2)C1 [Example 333, N-(5-(7′-Fluoro-3′-methyl-2′-oxo-2′,3′-dihydrospiro [cyclobutane-1,1′-pyrrolo [2,3-c]quinolin]-8′-yl)-2-(3-(methylamino)azetidin-1-yl)pyridin-3-yl)cyclopropanesulfonamide]
7.00 to 9.00	9.00 to 9.30	–	–	CCS(=O)(=O)Nc1cc(-c2cc3c4c(cnc3cc2F)N(C)C(=O)C42CCC2)cnc1N1CC(NC)C1 [Example 334]
–	–	7.00 to 9.00	7.00 to 9.00	Cc1ncc(S(=O)(=O)Nc2cc(-c3ccc4ncc5c(c4c3)C3(CCC3)C(=O)N5C)cnc2N2CC(N(C)C)C2)s1 [Example 338, N-(2-(3-(Dimethylamino)azetidin-1-yl)-5-(3′-methyl-2′-oxo-2′,3′-dihydrospiro[cyclobutane-1,1′-pyrrolo[2,3-c]quinolin]-8′-yl)pyridin-3-yl)-2-methylthiazole-5-sulfonamide]
–	–	7.00 to 9.00	7.00 to 9.00	CCN(C)S(=O)(=O)Nc1cc(-c2ccc3ncc4c(c3c2)C2(CCC2)C(=O)N4C)cnc1N1CC(N(C)C)C1 [Example 339, 8′-{6-[3-(Dimethylamino)azetidin-1-yl]-5-{[ethyl(methyl)sulfamoyl]amino}pyridin-3-yl}-3′-methyl-2′,3′-dihydrospiro [cyclobutane-1,1′-pyrrolo[2,3-c]quinoline]-2′-one]
